Source: PubChem BioAssay (NCI)
Values joined by “and” are separate entries in the source; they are usually repeats but may differ in a detail not shown here. Equal entries are not always repeated.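 Exposure lasted 48 hours, with cells grown in 96-well plates and compounds tested at five concentrations. GI50 = concentration required for 50% inhibition of growth. TGI denotes the concentration required for complete inhibition of growth.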

Columns and labels:
Assay in all cases: growth of human tumour cells (NCI), 48 h
[1] = system: SF-539 CNS
[2] = system: HS 578T breast
[3] = system: UACC-257 melanoma
[4] = system: NCI-H226 lung
[5] = system: MALME-3M melanoma
[6] = system: A498 renal
[7] = system: SK-OV-3 ovarian
[8] = system: OVCAR-3 ovarian
[9] = system: BT-549 breast
[10] = system: SK-MEL-2 melanoma

| Compound | GI50 [1] | TGI [1] | GI50 [2] | TGI [2] | GI50 [3] | TGI [3] | GI50 [4] | TGI [4] | GI50 [5] | TGI [5] | GI50 [6] | TGI [6] | GI50 [7] | TGI [7] | GI50 [8] | TGI [8] | GI50 [9] | TGI [9] | GI50 [10] | TGI [10] |
| --- | --- | --- | --- | --- | --- | --- | --- | --- | --- | --- | --- | --- | --- | --- | --- | --- | --- | --- | --- | --- |
| CC(=O)c1cc(C(=O)c2ccc3c(c2)Sc2ccccc2N3)c2c(C)cccn12 | 0.234 µM | 1.13 µM | 0.266 µM | > 36.3 µM | 2.39 µM | > 100 µM | 1.95 µM | > 52.3 µM | 13.6 µM | > 100 µM | 0.141 µM | 1.9 µM | 0.266 µM | 10.5 µM | 0.261 µM | 0.838 µM | 0.777 µM | 23.8 µM | 0.3 µM | > 66.2 µM |
| COc1cc(-n2ccnc2)cc(OC)c1OC | > 100 µM | > 100 µM | > 100 µM | > 100 µM | > 100 µM | > 100 µM | 36.2 µM | > 100 µM | 35.1 µM | > 100 µM | 35.8 µM | > 100 µM | 80.2 µM | > 100 µM | 51.6 µM | > 100 µM | > 100 µM | > 100 µM | 64.1 µM | > 100 µM |
| O=c1oc2ccc(-c3ccc(F)cc3F)cc2c(=O)n1-c1ccc(Cl)c(C(F)(F)F)c1 | 2.54 µM | 7.09 µM | 2.42 µM | 8.16 µM | 1.85 µM | 6.44 µM | 2.03 µM | 6.11 µM | 2.19 µM | 5.73 µM | 0.656 µM | 2.4 µM | 2.01 µM | 5.17 µM | 3.17 µM | > 100 µM | 2.06 µM | 5.17 µM | 1.99 µM | 4.76 µM |
| CC(=O)OC1CC[C@@]2(C)C(CC[C@]3(C)C2CC=C2[C@@H]4C(C)[C@H](C)CCC4(C)CCC23C)[C@@]1(C)C(=O)O (some centres undefined) |  | 51.8 µM |  | 64.9 µM |  | 40.9 µM |  | 53.4 µM |  | 49 µM |  | 37.2 µM |  | 40.4 µM |  | 40.4 µM |  | 49.8 µM |  | 50.2 µM |
| Cc1cccc(NC(=O)/C=C/c2ccc([N+](=O)[O-])cc2)c1 |  | > 74.1 µM |  | > 87 µM |  | > 55.1 µM |  | > 72 µM |  | 66.9 µM |  | > 100 µM |  | > 61.5 µM |  | 27.6 µM |  | > 51.8 µM |  | 49.4 µM |
| Nc1ccccc1C#C/C=C\C#Cc1c(F)c(F)c(F)c(F)c1F | 20.9 µM | 47.1 µM | 32.7 µM | > 100 µM | 17.9 µM | 38.6 µM | 11.3 µM | 26.7 µM | 18.6 µM | 40.1 µM | 25.5 µM | 55.8 µM | 33.9 µM | > 100 µM | 15.3 µM | 32.9 µM | 10.3 µM | 28.6 µM | 26.3 µM | 88.9 µM |
| Cc1cn(-c2ccc(S(C)(=O)=O)cc2)c(-c2ccc(Cl)cc2)n1 | > 100 µM | > 100 µM | > 100 µM | > 100 µM | > 100 µM | > 100 µM | > 100 µM | > 100 µM | > 100 µM | > 100 µM | > 100 µM | > 100 µM | > 100 µM | > 100 µM | > 100 µM | > 100 µM | > 100 µM | > 100 µM | > 100 µM | > 100 µM |
| Cn1c(=S)c2[nH]c(SCCN3C(=O)c4ccccc4C3=O)nc2n(C)c1=O |  | > 100 µM |  | > 100 µM |  | > 100 µM |  | > 100 µM |  | > 100 µM |  | > 100 µM |  | > 100 µM |  | > 100 µM |  | > 100 µM |  | > 100 µM |
| O=C(C[P+](c1ccccc1)(c1ccccc1)c1ccccc1)C[P+](c1ccccc1)(c1ccccc1)c1ccccc1 | 0.286 µM | 1.13 µM | 0.581 µM | 4.5 µM | 0.416 µM | 1.28 µM | 0.197 µM | 0.612 µM | 0.335 µM | 1.48 µM | 0.223 µM | 1.02 µM | 1.49 µM | 3.17 µM | 0.296 µM | 0.807 µM | 0.363 µM | 1.24 µM | 0.341 µM | 1.04 µM |
| O=S(=O)(Nc1ccc(F)c(Cl)c1)c1ccc(-c2cnc(C3CC3)o2)cc1 | 0.305 µM | 1.8 µM | 0.28 µM | 4.53 µM | 1.12 µM | 10.1 µM | 0.822 µM | 10.1 µM | 0.589 µM | 16.1 µM | 0.156 µM | 0.823 µM | 0.728 µM | 14.4 µM | 0.154 µM | 4.01 µM | 0.577 µM | 9.01 µM | 0.657 µM | 14 µM |
| COc1cc(/C=C/c2cc(/C=C/c3ccc(O)c(OC)c3)n(C(=O)Nc3ccc(Cl)cc3)n2)ccc1O | 0.501 µM | 2.41 µM | 0.732 µM | 5.63 µM | 1.26 µM | 6.81 µM | 2.16 µM | 7.92 µM | 0.76 µM | 3.96 µM | 1.84 µM | 5.13 µM | 0.426 µM | 1.8 µM | 0.329 µM | 1.07 µM | 0.885 µM | 3.51 µM | 0.403 µM | 2.01 µM |
| CN1CCN(CCOc2cc(OC3CCOCC3)c3c(Nc4c(Cl)ccc5c4OCO5)ncnc3c2)CC1 | 6.5 µM and 6.41 µM | 21.1 µM and > 10 µM | 0.732 µM and 1.7 µM | 11.2 µM and > 10 µM | 15.1 µM and > 10 µM | 30.2 µM and > 10 µM | 15.7 µM and > 10 µM | 38.9 µM and > 10 µM | 14.1 µM and > 10 µM | 30.1 µM and > 10 µM | 0.529 µM and 1.37 µM | 4.52 µM and > 10 µM | 0.441 µM and 0.345 µM | 13.2 µM and > 10 µM | 3.7 µM and 5.55 µM | 22.2 µM and > 10 µM | 15.6 µM and > 10 µM | 30.7 µM and > 10 µM | 16.6 µM and > 10 µM | 31.8 µM and > 10 µM |
| CCS(=O)(=O)c1ccc(OC)c(Nc2ncc(-c3ccccc3Cl)o2)c1 | 10.6 µM | > 25 µM | 11.5 µM | > 25 µM | > 25 µM | > 25 µM | 7.72 µM | > 25 µM | > 25 µM | > 25 µM | 3.17 µM | 12.1 µM | 8.47 µM | > 25 µM | 9.38 µM | > 25 µM | 11.8 µM | > 25 µM | 9.06 µM | > 21.6 µM |
| C=C(C)C(=O)O[C@@H]1C/C(C)=C\[C@H](OC(C)=O)C[C@](C)(O)/C=C2/OC(=O)C(COC(C)=O)=C21 |  | > 28.5 µM |  | 47 µM |  | 3.62 µM |  | 6.17 µM |  | 0.979 µM |  | > 20.8 µM |  | 18.7 µM |  |  |  | 3.91 µM |  | 14.1 µM |
